Experimental data as given in patent US20210353593A1 (Chinook Therapeutics, Inc., priority 2019, published 2021).
Positions of bridges follow the written chain, without caps; N, C: chain ends. No end group written: not given here.

Test system: IL-6 production in primary human mesangial cells
Experiment: ET-1 induced IL-6 production (ELISA) in primary human renal mesangial cells
Format: cell-based

ET-1: endothelin 1, used to stimulate primary human mesangial cells (CSCSSLMDKECVYFCHLDIIW; disulfide 1-15, 3-11; ends not checked; UniProt P05305 53-73, looked up)
increase in IL-6 production by primary human mesangial cells (exposed to ET-1 over 48 hours): ~6 fold
increase in IL-6 production by primary human mesangial cells (exposed to ET-1 over 72 hours): ~2.2 fold
